# Molecular target: Human immunodeficiency virus type 1 protease (Human immunodeficiency virus 1) (UniProt Q72874)
# Assay: Percent inhibition of human immunodeficiency virus-1 protease after 1 uM treatment
row,Structure (SMILES),inhibition
1,CCC(C)[C@@H](NC(=O)[C@@H](NC(=O)CCCCCCCCCCCCCCC(=O)N[C@H](CC(=O)N[C@@H](Cc1ccccc1)C(=O)O)C(N)=O)C(C)O)C(=O)NC(C(N)=O)c1ccccc1 (stereo not given in full),29%
2,CCC(C)[C@@H](NC(=O)[C@@H](NC(=O)CCCCCCCCCCCCCCC(=O)N[C@H](CC(=O)N[C@@H](Cc1ccccc1)C(=O)O)C(N)=O)C(C)O)C(=O)NC(CO)C(N)=O (stereo not given in full),8%
3,CCC(C)[C@@H](NC(=O)[C@@H](NC(=O)CCCCCCCCCCCCCCC(=O)N[C@H](CC(=O)N[C@@H](Cc1ccccc1)C(=O)O)C(N)=O)C(C)O)C(=O)NC(CC1CC1)C(N)=O (stereo not given in full),21%
4,CC[C@H](C)[C@@H](NC(=O)c1cccc(CNC(=O)CCCCCCCCCCCCCCC(=O)N[C@H](CC(=O)N[C@@H](Cc2ccccc2)C(=O)O)C(N)=O)c1)C(=O)N[C@@H](Cc1ccccc1)C(N)=O,10%
5,CCC(C)[C@H](NC(=O)CCCCCCCCCCCCCCC(=O)N[C@@H](CC(N)=O)C(=O)NC(Cc1ccc(O)cc1)C(=O)O)C(=O)N[C@H](Cc1ccccc1)C(N)=O (stereo not given in full),15%
6,CCC(C)[C@@H](NC(=O)[C@@H](NC(=O)CCCCCCCCCCCCCCC(=O)N[C@H](CC(=O)N[C@@H](Cc1ccccc1)C(=O)O)C(N)=O)C(C)O)C(=O)Nc1ccc(C(N)=O)cc1 (stereo not given in full),36%

# Second part, the compound after the results:
row,inhibition,Structure (SMILES)
1,14%,CCCC(NC(=O)CCCCCCCCCCCCCCC(=O)N[C@H](CC(=O)N[C@@H](Cc1ccccc1)C(=O)O)C(N)=O)C(=O)N[C@@H](C(=O)N[C@@H](Cc1ccccc1)C(N)=O)[C@@H](C)CC (stereo not given in full)
2,32%,CC[C@H](C)[C@@H](NC(=O)C(CC1CC1)NC(=O)CCCCCCCCCCCCCCC(=O)N[C@H](CC(=O)N[C@@H](Cc1ccccc1)C(=O)O)C(N)=O)C(=O)N[C@@H](Cc1ccccc1)C(N)=O (stereo not given in full)
3,30%,CC(O)[C@H](NC(=O)CCCCCCCCCCCCCCC(=O)N[C@H](CC(=O)N[C@@H](Cc1ccccc1)C(=O)O)C(N)=O)C(=O)N[C@H](CC1CCCCC1)C(=O)N[C@@H](Cc1ccccc1)C(N)=O (stereo not given in full)

# Molecular target: Human immunodeficiency virus type 1 protease (Human immunodeficiency virus 1, UniProt Q72874)
# Assay: Inhibitory concentration against human immunodeficiency virus-1 protease; (competitive inhibitor)
row,Structure (SMILES),IC50
1,CC(O)[C@H](NC(=O)CCCCCCCCCCCCCCC(=O)N[C@H](CC(=O)N[C@@H](Cc1ccccc1)C(=O)O)C(N)=O)C(=O)N[C@@H](Cc1ccccc1)C(N)=O (stereo not given in full),11 µM

# From ChEMBL document CHEMBL1143555, “Development of low molecular weight HIV-1 protease dimerization inhibitors” (J Med Chem, 2005)
